Columns and labels:
[1] = test system: Jurkat cell adherence to FN; test: Jurkat cell adherence to fibronectin (calcein-AM fluorescence); type: cell-based; conditions: for reversal of the inhibitory effect of lovastatin on PMA-stimulated Jurkat cell adhesion: co-incubated with lovastatin 2.5 days
Procedure: (§1) Briefly, Jurkat and U937 cells (American Type Culture Collection; Manassas Va.) were maintained in Earles Modified Eagles Medium (EMEM; M. A. Bioproducts, Walkersville, Md.) supplemented with 10% fetal bovine serum (FBS; Hyclone Laboratories Inc.; Logan Utah), 5 mM glutamine (Life Technologies Inc.; Gaithersburg Md.), 5 mM sodium pyruvate (Life Technologies), and […] (Life Technologies). Lovastatin (Calbiochem; San Diego Calif.) was converted to open acid form before use. […] The solution was heated to 50° C. for two hours. To this heated solution, 4.5 ml of an aqueous solution containing 81 mM NaH2PO4 and […] was added. The solution was heated to 40° C. for 30 min and the pH was adjusted to 7.3 with concentrated HCl. The final concentration was determined by UV spectroscopy (ε231 =21,490 M^−1cm^−1). The stock solution was frozen in small aliquots.
Cell adhesion of Jurkat cells and U937 cells to fibronectin (FN) or laminin (LN), respectively, was measured. Human FN (1.25 μg/ml)(Collaborative Research Inc.; Bedford Mass.) or human LN (100 μg/ml)(Life Technologies) was coated onto 96-well PRO-BIND assay plate (Falcon; Becton Dickinson; Lincoln Park N.J.) by incubating overnight at 4° C. The plate was then blocked with 3% bovine serum albumin (BSA) in phosphate buffered saline (PBS) at room temperature for one hour. Immediately before use, plates were washed three times with PBS.
(§2) After centrifugation for seven min at 300 xg, cells were resuspended in 1 ml phenol red-free medium and then labeled by incubation with 5 μl of the fluorescent dye calcein-AM (1 mg/ml in DMSO; Molecular Probes; Eugene Oreg.) for 30 min at room temperature in the dark. The cells were then washed twice with phenol red-free medium. After incubation with phorbol 12-myristate 13--acetate (PMA) (100 ng/ml) (Sigma; St. Louis Mo.), which is an activator of protein kinase C (PKC), or MAb 8A2 (2 μg/ml) for 30 min in control medium at room temperature, cells (˜1×10^5/well) were added to triplicate wells. After incubation for 30 min at 37° C., the total cells in the well were analyzed using a fluorescence plate reader (PerSeptive Biosystem; Framingham Mass.). Unbound cells were removed by washing the plate three times with phenol red-free medium, and the plate was then reanalyzed to determine fluorescence of bound cells. After subtraction of background, the percent adherence was calculated as the emission at 530 nm of bound cells divided by the […] of total cells.

RhoA = RhoA immunoblot (electrophoretic mobility as measure of isoprenylation) in Jurkat cells; type: cell-based
Procedure: Cell lysates were subjected to immunoblot analysis to assess RhoA electrophcoretic mobility as a measurement of isoprenylation. For RhoA blots, membranes were sequentially incubated with rabbit anti-RhoA antibody (Santa Cruz Biotechnology, Inc.) in TBST at room temperature for three hours, washed with TBST five times, incubated with goat anti-rabbit IgG (H+L) conjugated with horse radish peroxidase (HRP) (Bio-Rad Laboratories; Hercules Calif.) for one hour, and then washed with TBST five times. RhoA bands were visualized on x-ray film by incubation of membrane with chemiluminescence luminol reagent (Santa Cruz Biotechnology) at room temperature for one minute.

ERK1 = test: Immunoblot for phosphorylated ERK1 in PMA-treated Jurkat cells; type: cell-based
KC = KC chemokine ELISA in lung lavage fluid of LPS-challenged mice; type: in vivo, murine
Procedure: (§3) Lavage fluids were used to measure cytokine production. The murine chemoattractant KC is a member of the CXC chemokine family of inflammatory cytokines and was measured by ELISA (R&D Systems; Minneapolis Minn.). The pro-inflammatory cytokine murine TNFα was also measured by ELISA (R&D Systems). The protocol for both assays was similar. Briefly, assay diluent was mixed with sample, which was the lavage fluid obtained as described in Example IV. The diluent was added to the appropriate capture plate and incubated for two hours. Plates were washed, incubated with conjugated anti-KC or anti-TNFα antibody for two hours, washed again, and then incubated with substrate for 30 min. A stop solution was then added, and the optical density determined by plate reader.

[2] = test system: neutrophil (PMN) and mononuclear cell migration into lung; test: PMA-induced pulmonary inflammation in mice, cell counts in lung lavage fluid; type: in vivo; conditions: i.n. lovastatin 7.0 μg/g with i.n. PMA; 24 hours
Procedure: (§4) Pulmonary inflammation was induced in mice using a technique similar to that reported by others (Szarka et al., J. Immunol. Methods 202:49-57 (1997)). Briefly, mice were anesthetized with halothane, then 2.5 μl/g was placed into their nares where it was rapidly taken into the trachea and deep into the lungs. […] Compounds were administered in a given amount per g of mouse body weight. In a second set of experiments, PMA (50 ng/μl final concentration; 5 mg/ml stock solution in dimethyl sulfoxide) was used in place of LPS. Mice were allowed to recover from anesthesia and returned to their cages with free access to food and water.
At either 24 (LPS and PMA) or 48 (LPS) hours, mice were returned to the laboratory and killed, their chest rapidly opened, then both lungs were lavaged with 0.5 ml of normal saline followed by a second lavage of another 0.5 ml of normal saline that was lavaged in and out four times. The lavage fluid was combined, total cell counts determined using a hemocytometer, cytospin preparations were then made, the cells stained using the commercial kit (DiffQuik; Baxter Healthcare Corp.; Miami Fla.), and differential cells counts completed. The total number of mononuclear cells and neutrophils in the lavage fluid was determined by counting 100 cells. The number of neutrophils or macrophages was determined by multiplying the percentages by the total cell count. […]

[3] = test system: neutrophil (PMN) and mononuclear cell migration into lung; test: LPS-induced pulmonary inflammation in mice, cell counts in lung lavage fluid; type: in vivo
Procedure: as §4
At either 24 (LPS and PMA) or 48 (LPS) hours, mice were returned to the laboratory and killed, their chest rapidly opened, then both lungs were lavaged with 0.5 ml of normal saline followed by a second lavage of another 0.5 ml of normal saline that was lavaged in and out four times. The lavage fluid was combined, total cell counts determined using a hemocytometer, cytospin preparations were then made, the cells stained using the commercial kit (DiffQuik; Baxter Healthcare Corp.; Miami Fla.), and differential cells counts completed. The total number of mononuclear cells and neutrophils in the lavage fluid was determined by counting 100 cells. The number of neutrophils or macrophages was determined by multiplying the percentages by the total cell count. Differences between groups were tested using the computer program Stat View (Abacus Concepts; Berkeley Calif.) by analysis of variances and post hoc testing using Fisher's protected least square differences. Differences were assumed significant for p<0.05. The lavage fluid remaining after cytospin and cell counts was subjected to centrifugation, and the supernatant collected and frozen at −20° C. for later cytokine analysis. […] Thus, lavage fluid was derived from regions where LPS was deposited as well as those regions receiving no challenge.
The LPS was given at the same time as the last dose of lovastatin by i.n. instillation as described above. […] Mice were returned to their cages with free access to food and water for 24 hours, then returned to the laboratory and killed. Lavage was performed and cell counts completed as described above.

[4] = test system: U937 cell adherence to LN; test: U937 cell adherence to laminin (calcein-AM fluorescence); type: cell-based
Procedure: as §1
Cell adhesion of Jurkat cells and U937 cells to fibronectin (FN) or laminin (LN), respectively, was measured. Human FN (1.25 μg/ml)(Collaborative Research Inc.; Bedford Mass.) or human LN (100 μg/ml)(Life Technologies) was coated onto 96-well PRO-BIND assay plate (Falcon; Becton Dickinson; Lincoln Park N.J.) by incubating overnight at 4° C. […]
as §2, with “The cells were then washed twice with phenol red-free medium. After incubation with phorbol 12-myristate 13--acetate (PMA) (100 ng/ml) (Sigma; St. Louis Mo.), which is an activator of protein kinase C (PKC), or MAb 8A2 (2 μg/ml) for 30 min in control medium at room temperature, cells (˜1×10^5/well) were added to triplicate wells.” left out

TNFα = TNFα ELISA in lung lavage fluid of LPS-challenged mice; type: in vivo, murine
Procedure: as §3

[5] = Mouse hind limb ischemia and reperfusion, leg diameter; type: in vivo; conditions: 7 μg/g i.p. at beginning of 30 min ischemia; 24 hours; t-test
Procedure: Briefly, mice were anesthetized with halothane. A tourniquet was then placed on one hind limb to completely occlude blood flow and kept in place for 30 min. Body temperature was maintained at 37° C. with a heating blanket during the period of ischemia. Perfusion of the hind limb was re-established by removal of the tourniquet, and leg diameter was measured hourly for the next 6 hours and again at 24 hours.

## CC(C)=CCC/C(C)=C/CC/C(C)=C/CO [FOH, trans, trans-farnesol]
[1]
  reversal of the inhibitory effect of lovastatin on PMA-stimulated Jurkat cell adhesion: not

## CC(C)=CCC/C(C)=C/CC/C(C)=C/CC/C(C)=C/CO [GGOH, all trans-geranylgeraniol]
[1]; 10 μM lovastatin (FIG. 3B)
  concentration required to rescue Jurkat cell from the inhibitory effect of lovastatin: 2.5 µM
[1]
  reversal of the inhibitory effect of lovastatin on PMA-stimulated Jurkat cell adhesion: reversed
RhoA; GGOH 5 μM with lovastatin
  RhoA migration on addition with lovastatin: more rapid migration of RhoA as seen in untreated cells

## COc1cccc(-c2cc(=O)c3ccccc3o2)c1N [PD-98059]
[1]; 10 μM, 30 min pre-incubation before PMA
  PMA-stimulated Jurkat cell adherence: did not inhibit
ERK1; Jurkat cells pre-incubated 30 min with MEK-1 inhibitor before PMA
  ERK1 phosphorylation: completely blocked

## CC[C@H](C)C(=O)O[C@H]1C[C@@H](C)C=C2C=C[C@H](C)[C@H](CC[C@@H]3C[C@@H](O)CC(=O)O3)[C@H]21 [lovastatin]
[1]; 8A2 2 μg/ml, 2.5 days pretreatment
  effect on mAb 8A2-stimulated Jurkat cell adherence to FN: no significant effect
[1]; concentration greater than 5 μM, 2.5 days pretreatment
  inhibition of PMA-stimulated Jurkat cell adherence to FN: nearly completely inhibited
ERK1; Jurkat cells, lovastatin 2.5 days, concentrations up to 40 μM, PMA 100 ng/ml 30 min
  PMA-stimulated MAPK (ERK1) phosphorylation: does not inhibit
KC; i.n. lovastatin, 24 hours after LPS, 7.0 μg/g group significantly different from control
  concentration of KC chemokine in the lavage fluid: reduced
KC; i.n. lovastatin, 48 hours after LPS, four groups
  KC concentration in the lavage fluid: not different
KC; i.p. lovastatin pretreatment, 24 hours after i.n. LPS
  KC concentration in the lavage fluid: significant reduction
[2]
  inhibition of PMN emigration: ~100%
  mononuclear cell number, control vs lovastatin treatment: no difference
[3]; i.n. lovastatin 0.7 μg/g with i.n. LPS, 24 hours
  percent of PMNs in lavage fluid compared with the control group: 74%
[3]; i.n. lovastatin 0.7 μg/g with i.n. LPS, 48 hours
  percent of PMNs in lavage fluid compared with the control group: 75%
[3]; i.n. lovastatin 1.4 μg/g with i.n. LPS, 24 hours
  percent of PMNs in lavage fluid compared with the control group: 28%
[3]; i.n. lovastatin 1.4 μg/g with i.n. LPS, 48 hours
  percent of PMNs in lavage fluid compared with the control group: 32%
[3]; i.n. lovastatin 7.0 μg/g with i.n. LPS, 24 hours
  percent of PMNs in lavage fluid compared with the control group: 4%
[3]; i.n. lovastatin 7.0 μg/g with i.n. LPS, 48 hours
  percent of PMNs in lavage fluid compared with the control group: 5%
[3]; i.n. lovastatin with i.n. LPS, 24 hours
  total number of lavage mononuclear leukocytes: no effect
[3]; i.n. lovastatin with i.n. LPS, 48 hours, differences not statistically significant
  number of mononuclear leukocytes in lavage fluid: somewhat less
[3]; i.p. lovastatin 7.0 μg/g daily x3, i.n. LPS, 24 hours, p<0.05
  number of PMNs accumulating, percent of control group: 30%
[3]; i.p. lovastatin 7.0 μg/g, i.n. LPS, 24 hours
  number of mononuclear leukocytes in lavage fluid: not different between groups
[4]; lovastatin pretreatment, 8A2 2 μg/ml
  inhibition of mAb 8A2-stimulated adherence of U937 cells to LN: not
[4]; lovastatin pretreatment, PMA 100 ng/ml
  inhibition of PMA-stimulated adherence of U937 cells to LN: inhibited
[4]; no pretreatment
  effect on stimulated adherence when added at the time of the adhesion assay instead of pretreating: without effect
RhoA; 14 μM lovastatin
  isoprenylation state of RhoA: Most RhoA was in non-isoprenylated form
RhoA; Jurkat cells, 2.5 days
  concentration at which geranylgeranylation of RhoA was significantly inhibited: ≥ 0.5 µM
TNFα; i.n. lovastatin, 24 hours, all doses significant vs control
  TNF concentration in lavage fluid: reduced in a dose-dependent manner
TNFα; i.n. lovastatin, 48 hours
  TNF concentration in lavage fluid, differences from control: not significant
TNFα; i.p. lovastatin, 24 hours after i.n. LPS, statistically significant
  TNF production: effective in preventing TNF production
[5]
  leg diameter after ischemia and reperfusion, vehicle vs lovastatin: significantly larger diameter than the lovastatin treated leg
